{
  "source": "patent US20080318326A1",
  "about": "(priority 2005, published 2008)",
  "assay": "Alamethicin channel currents across PTFE-supported bilayer lipid membrane",
  "format": "biochemical",
  "details": "alamethicin 100 ng/ml on both sides of PTFE support matrix",
  "experimental": "Alamethicin is a peptide that spontaneously inserts itself into a bilayer lipid membrane. Molecules of alamethicin can diffuse within the plane of the membrane and may associate with other alamethicin molecules to form a channel for the passage of small ions when a voltage is applied across a bilayer lipid membrane.\nGiven the above, alamethicin was used as an indicator of bilayer lipid membrane formation success.\nIn this example, alamethicin is dissolved in 100% ethanol (5 μg/ml) and stored at 4° C. After the bilayer lipid membrane is formed, alamethicin is added to solutions on both sides of the PTFE support matrix 11 to a final concentration of 100 ng/ml. Electrochemical measurements were then carried out using a two electrode system. Silver/silver chloride wires were used as the working and reference electrodes and based on measurements taken, channels were observed after 10 minutes.\nThe nature of the electrical current caused by the flow of ions is understood to be dependent on: • 1. The concentration of ions bathing the bilayer lipid membrane, • 2. The voltage applied and, • 3. The concentration of alamethicin.",
  "note": "Peptide text beside a SMILES is read from it.",
  "data": [
    {"smiles": "CC(=O)NC(C)(C)C(=O)N1CCC[C@H]1C(=O)NC(C)(C)C(=O)N[C@@H](C)C(=O)NC(C)(C)C(=O)N[C@@H](C)C(=O)N[C@@H](CCC(N)=O)C(=O)NC(C)(C)C(=O)N[C@H](C(=O)NC(C)(C)C(=O)NCC(=O)N[C@@H](CC(C)C)C(=O)NC(C)(C)C(=O)N1CCC[C@H]1C(=O)N[C@H](C(=O)NC(C)(C)C(=O)NC(C)(C)C(=O)N[C@@H](CCC(=O)O)C(=O)N[C@@H](CCC(N)=O)C(=O)N[C@H](CO)Cc1ccccc1)C(C)C)C(C)C", "note": "[alamethicin] (HELM PEPTIDE1{[ac].[Aib].P.[Aib].A.[Aib].A.Q.[Aib].V.[Aib].G.L.[Aib].P.V.[Aib].[Aib].E.Q.[OC[C@H](Cc1ccccc1)N[*:1]]}$$$$V2.0)", "values": [
      {"measurement": "time after which channels were observed", "result": 10, "unit": "min"}
    ]}
  ]
}
